Some test systems named below: HCT-116; OVCAR-3; NCI/ADR-RES; CAKI-1; COLO 205; DU-145; MCF7; HCT-15; EKVX; HT-29; SN12C; IGROV-1; MOLT-4; T47D; NCI-H522; M14; NCI-H23; CCRF-CEM; PC-3; Malme-3M.
Common to all, as to experiment: inhibition of tumour cell growth, NCI panel, 48 h

Consider eleven compounds from ChEMBL document CHEMBL1201862, “PubChem BioAssay data set” (2004).

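Test compounds were applied to cells in 96-well plates for 48 hours at 5 doses. At the GI50, growth is halved.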 Active and inactive are the calls of the source. No stated cut-off is given here; in the data, active = GI50 up to about 1.1 µM and inactive = higher.

Consider `COC(=O)[C@]1(C)CCC[C@@]2(C)C1CC[C@@]13C=C(C(C)C)[C@@H](CC1=O)CC23` (some centres not stated), for which the GI50 in the test on HCT-116 is 20.4 µM (inactive); with OVCAR-3 it was 21.4 µM (inactive); in the test with NCI/ADR-RES it was 23 µM (inactive); with CAKI-1, 34.2 µM (inactive); in the test on COLO 205, > 10 µM (inactive); in the test with DU-145 it was 38.4 µM (inactive). Also, the GI50 was 26.1 µM (inactive) in the test with MCF7; 21.1 µM with HCT-15; 27.4 µM (inactive) with EKVX; 18.2 µM (inactive) in the test with HT-29; 19.8 µM (inactive) in the test with SN12C; 35.2 µM (inactive) in the test on IGROV-1. Moreover, the GI50 in the test with MOLT-4 is 15 µM (inactive); in the test on T47D it was 32.4 µM (inactive); in the test on NCI-H522 it was 18.6 µM (inactive); in the test on M14, 38.5 µM (inactive); in the test with NCI-H23, 34 µM (inactive); with CCRF-CEM, 17.7 µM (inactive). Also, the GI50 in the test on PC-3 is 21.6 µM (inactive).

For `O=C(O)[C@H](Cc1ccccc1)NCCN1CCC[C@H]1C(=O)O`, the GI50 with HCT-116 was > 100 µM (inactive); in the test with OVCAR-3, > 100 µM (inactive); in the test on NCI/ADR-RES, > 100 µM (inactive); in the test on CAKI-1 it was > 100 µM (inactive); with COLO 205, 37.6 µM (inactive); with DU-145, > 100 µM (inactive). Also, the GI50 with MCF7 is > 100 µM (inactive); with HCT-15, 22.2 µM; with HT-29 it was 26.2 µM (inactive); with SN12C, > 100 µM (inactive); with MOLT-4, 99.8 µM (inactive); in the test on Malme-3M it was 49.8 µM (inactive). In addition, the GI50 in the test with T47D, with NCI-H522, in the test on M14, in the test on NCI-H23 and with PC-3 was > 100 µM (inactive) each time.

Regarding `O=C(Nc1ccc(Cl)cc1)Oc1ccc(C(=S)Nc2ccc(Br)cc2)cc1`, the GI50 with HCT-116 is 10.3 µM (inactive); with OVCAR-3, 16.1 µM (inactive); with NCI/ADR-RES it was 9.53 µM (inactive); with CAKI-1 it was 7.78 µM (inactive); in the test with COLO 205, 9.75 µM (inactive); in the test with DU-145 it was 25.8 µM (inactive). Further, the GI50 with MCF7 was 11.7 µM (inactive); in the test with HCT-15 it was 11 µM; in the test with EKVX it was 2.49 µM (inactive); in the test on HT-29, 2.19 µM (inactive); with IGROV-1, 2.05 µM (inactive); in the test on MOLT-4, 4.44 µM (inactive). Besides, the GI50 in the test on Malme-3M was 20.2 µM (inactive); in the test with T47D, 10.5 µM (inactive); with NCI-H522, 10.4 µM (inactive); in the test with M14 it was 3.43 µM (inactive); in the test on NCI-H23, 27.7 µM (inactive); with CCRF-CEM, 3.04 µM (inactive). Besides, the GI50 in the test on PC-3 is 21.1 µM (inactive).

Take `CCN1CCN(c2nc3ccccc3nc2C(=O)c2ccc(OC)cc2)CC1`: the GI50 is 6.07 µM (inactive) in the test with HCT-116; 69.7 µM (inactive) with OVCAR-3; 45.1 µM (inactive) in the test on NCI/ADR-RES; 39.8 µM (inactive) in the test with CAKI-1; > 100 µM (inactive) with COLO 205; > 100 µM (inactive) in the test on DU-145. Moreover, the GI50 was 7.1 µM (inactive) in the test with MCF7; 49.4 µM in the test with HCT-15; 47.1 µM (inactive) with EKVX; 23.9 µM (inactive) in the test with HT-29; 75.9 µM (inactive) with IGROV-1; 28.8 µM (inactive) with MOLT-4. For the same compound, the GI50 in the test on Malme-3M is 16.5 µM (inactive); with T47D it was > 100 µM (inactive); in the test on NCI-H522, 53.6 µM (inactive); in the test on M14 it was 15 µM (inactive); with NCI-H23, 27 µM (inactive); with PC-3 it was 78 µM (inactive).

Consider `CCOC(=O)N1CCC2(CC1)C[C@](Sc1ccccc1)(C(C)=O)[C@H](C)O2`, for which the GI50 in the test with OVCAR-3, in the test on NCI/ADR-RES, with CAKI-1, in the test on COLO 205, with DU-145 and in the test with MCF7 was > 100 µM (inactive) in each case. The GI50 with HCT-15 was > 100 µM; in the test on EKVX, > 100 µM (inactive); in the test on HT-29 it was > 100 µM (inactive); with IGROV-1, > 100 µM (inactive); with MOLT-4 it was > 100 µM (inactive); with Malme-3M, > 100 µM (inactive). Besides, the GI50 with T47D is > 100 µM (inactive); with NCI-H522 it was > 100 µM (inactive); with M14, > 100 µM (inactive); in the test with NCI-H23, > 100 µM (inactive); with CCRF-CEM, 12.1 µM (inactive); with PC-3 it was > 100 µM (inactive).

Take `CC(=O)O[C@H]1C(=O)[C@@]2(C)[C@H]([C@H](OC(=O)C3CCCCC3)[C@]3(O)C[C@H](OC(=O)[C@H](O)[C@@H](NC(=O)C4CCCCC4)C4CCCCC4)C(C)=C1C3(C)C)[C@]1(OC(C)=O)CO[C@@H]1C[C@@H]2O`: the GI50 is 0.00439 µM (active) in the test on HCT-116; 0.00386 µM (active) with OVCAR-3; 1.07 µM (active) in the test with NCI/ADR-RES; 0.105 µM (active) in the test on CAKI-1; 0.00615 µM (active) in the test with COLO 205; 0.151 µM (active) in the test with DU-145. In addition, the GI50 with MCF7 was 0.00569 µM (active); in the test with HCT-15 it was 0.143 µM; in the test with EKVX, 5.61 µM (inactive); with SN12C, 0.0942 µM (active); in the test with IGROV-1, 0.027 µM (active); in the test with MOLT-4 it was 0.0151 µM (active). The GI50 in the test on Malme-3M was 0.0323 µM (active); in the test with T47D, 0.0219 µM (active); with NCI-H522, 0.00658 µM (active); in the test on M14, 0.00889 µM (active); in the test on NCI-H23, < 0.0132 µM (active); in the test on CCRF-CEM, 0.0234 µM (active). Moreover, the GI50 in the test on PC-3 was 0.016 µM (active).

`COc1ccc(/C=C2\OC(=O)C(Cl)=C2c2ccc(OC)c(Cl)c2)cc1`: the GI50 is 39.1 µM (inactive) in the test with HCT-116; 20 µM (inactive) in the test on OVCAR-3; 21.4 µM (inactive) in the test on NCI/ADR-RES; 21.9 µM (inactive) with CAKI-1; 40.4 µM (inactive) in the test on COLO 205; 36.3 µM (inactive) with DU-145. Besides, the GI50 is 19.9 µM (inactive) in the test with MCF7; 45 µM in the test with HCT-15; 18.3 µM (inactive) with EKVX; 43.2 µM (inactive) in the test on HT-29; 32 µM (inactive) in the test with IGROV-1; 48.9 µM (inactive) with MOLT-4. The GI50 in the test on Malme-3M is 25.3 µM (inactive); with T47D, 32.1 µM (inactive); in the test with NCI-H522, 25.3 µM (inactive); in the test on M14 it was 25.4 µM (inactive); in the test on NCI-H23 it was 20 µM (inactive); with CCRF-CEM, 29.2 µM (inactive). In addition, in the test with PC-3, the GI50 was 30.8 µM (inactive).

Turning to `Cc1ccc(S(=O)(=O)OI(O)CC(F)(F)F)cc1`, the GI50 in the test with HCT-116, in the test with OVCAR-3, with NCI/ADR-RES, in the test with CAKI-1, in the test with COLO 205 and in the test on DU-145 was > 100 µM (inactive) each time. Besides, the GI50 was > 100 µM (inactive) with MCF7; > 100 µM with HCT-15; > 100 µM (inactive) in the test on EKVX; > 100 µM (inactive) in the test on HT-29; > 100 µM (inactive) with SN12C; > 100 µM (inactive) with IGROV-1. The GI50 in the test with MOLT-4 was > 100 µM (inactive); in the test with T47D, > 100 µM (inactive); with NCI-H522 it was 91.8 µM (inactive); with M14, > 100 µM (inactive); in the test with NCI-H23, > 100 µM (inactive); in the test with CCRF-CEM it was > 100 µM (inactive). Besides, the GI50 in the test with PC-3 was > 100 µM (inactive).

With `CC(=O)OCc1ccc2oc(=O)c(C(=O)Oc3cccc(Cl)c3)cc2c1`, the GI50 in the test on HCT-116 is 21.2 µM (inactive); with OVCAR-3, > 100 µM (inactive); in the test on NCI/ADR-RES it was > 100 µM (inactive); in the test with CAKI-1, 42.9 µM (inactive); with COLO 205, 30.3 µM (inactive); in the test with DU-145, > 100 µM (inactive). Besides, the GI50 was 26.2 µM (inactive) with MCF7; 35.5 µM with HCT-15; > 100 µM (inactive) in the test on EKVX; 27.5 µM (inactive) in the test with HT-29; 54.5 µM (inactive) in the test on SN12C; 63.5 µM (inactive) with IGROV-1. The GI50 was 90.2 µM (inactive) in the test on MOLT-4; > 100 µM (inactive) with Malme-3M; 20.6 µM (inactive) in the test on T47D; > 100 µM (inactive) with NCI-H522; 34.6 µM (inactive) in the test with M14; 74.6 µM (inactive) in the test on NCI-H23. The GI50 in the test with CCRF-CEM is > 100 µM (inactive); with PC-3, 19.1 µM (inactive).

As for `COc1cccc(N2C(=O)CS(=O)(=O)C2c2cccc(Oc3ccccc3)c2)c1` (configuration not stated), the GI50 in the test on HCT-116 is 11.1 µM (inactive); in the test with OVCAR-3, 19.5 µM (inactive); in the test on NCI/ADR-RES it was 9.42 µM (inactive); in the test with CAKI-1, 26.1 µM (inactive); in the test on COLO 205, 6 µM (inactive); in the test with DU-145 it was 38.5 µM (inactive). Besides, the GI50 is 3.04 µM (inactive) in the test with MCF7; 5.27 µM with HCT-15; 17 µM (inactive) in the test with EKVX; 13.1 µM (inactive) with HT-29; 17.6 µM (inactive) in the test on SN12C; 21.3 µM (inactive) in the test on MOLT-4. Moreover, the GI50 in the test on Malme-3M was 15.9 µM (inactive); in the test on T47D, 19.1 µM (inactive); in the test with NCI-H522 it was 6.53 µM (inactive); in the test with M14, 15.4 µM (inactive); with NCI-H23, 23.4 µM (inactive); with CCRF-CEM it was 26.9 µM (inactive). In the test with PC-3, the GI50 is 9.98 µM (inactive).

For `Nc1nc(N)c2nc(CNc3ccc(C(=O)NC(CCCCNC(=O)c4ccccc4C(=O)O)C(=O)O)cc3)cnc2n1` (configuration not stated), the GI50 in the test on HCT-116 was 0.01 µM (active); in the test on OVCAR-3, > 100 µM (inactive); with NCI/ADR-RES it was 0.01 µM (active); in the test on CAKI-1 it was 0.01 µM (active); in the test with COLO 205, 0.01 µM (active); with DU-145, 0.01 µM (active). The GI50 was 0.01 µM (active) in the test on MCF7; 0.01 µM in the test with HCT-15; > 34.4 µM (inactive) with EKVX; 0.01 µM (active) with HT-29; 0.01 µM (active) with SN12C; < 0.0113 µM (active) in the test with IGROV-1. The GI50 is 0.01 µM (active) with MOLT-4; 3.61 µM (inactive) with Malme-3M; 0.01 µM (active) with T47D; 5.38 µM (inactive) in the test on NCI-H522; 0.01 µM (active) in the test with M14; 0.0143 µM (active) in the test on NCI-H23. In addition, the GI50 in the test with CCRF-CEM and with PC-3 was 0.01 µM (active) each time.
